Test results published in ChEMBL document CHEMBL1159204, “Limonoids showing selective toxicity to DNA repair-deficient yeast and other constituents of Trichilia emetica” (J Nat Prod, 1998).
Values after ≈ are worked out from the molar mass of the structure shown.

Key:
Saccharomyces cerevisiae [1] = assay: DNA damaging activity against DNA repair-deficient RS 322YK (rad 52Y) yeast assessed as drug level required to produce 12 mm zone of inhibition; type: functional
Saccharomyces cerevisiae [2] = assay: DNA damaging activity against RS 188N (RAD+) yeast assessed as drug level required to produce 12 mm zone of inhibition; type: functional
Vero = assay: Cytotoxicity against african green monkey Vero cells; type: cell-based; conditions: Chlorocebus sabaeus

Structure (SMILES)	IC12 (Saccharomyces cerevisiae [1]) [µg/mL]	IC12 (Saccharomyces cerevisiae [2]) [µg/mL]	IC50 (Vero) [µg/mL]
C=C1[C@@H]([C@@]2(C)[C@@H](OC(C)=O)C[C@@]3(O)OC[C@](C)(O3)[C@@H]2CC(=O)OC)[C@@H](OC=O)[C@H](OC(=O)C(O)C(C)CC)[C@@]2(C)[C@H](c3ccoc3)CC(=O)[C@]12O (stereo not given in full)	0.9	100	12 (≈ 16.6 µM)
CC[C@@]1(O)C(=O)OCc2c1cc1n(c2=O)Cc2cc3ccccc3nc2-1 [CAMPTOTHECIN]	0.6	110	
